# Data published in patent publication US20250082630A1, “METHODS OF TREATING BRAIN TUMOURS AND NEUROBLASTOMAS” (AstraZeneca AB, priority 2021, published 2025).
# pIC50: −log10 of the molar value.
# How the values were obtained:
# U87 IDH1mt ATRXwt = experiment: Monotherapy treatment, U87 IDH1mt ATRXwt; assay type: cell-based; settings: read-out: Compound 20 IC50
# Method: (§1) To evaluate the activity and potency of the PARP inhibitors described herein in combination with the standard of care chemotherapy Temozolamide (TMZ), ionizing radiation (IR) and the emerging chemotherapy VAL-083, U87, SJG2 and BT245 glioblastoma cells were assayed. Parental U87 cell lines were obtained from the AstraZeneca Global Cell Bank in Alderley Park, UK and the isocistrate dehydrogenase 1 mutant cell line (IDH1 mt R1 32H) was licensed in from ATCC. The SJ-G2 (ATRX mutant) and BT245 (H3K27M mutant) cell lines were obtained from The Research Institute of the McGill University Health Centre, Montreal, QC H4A 3J1, Canada. IDH1R132 mutation was induced in SJG2 cell line to generated isogenic pair (SJG2 IDH1mt and SJG2 IDH1 wt). […]
# (§2) For the nuclear count end point assay, cells were fixed for ˜15 minutes (min) by the addition of 50 μl per well of Formaldehyde (Sigma-Aldrich F8775). […] The images were acquired using CellInsight CX5 (Thermo Fisher) and analysed by measuring the total number of hoechst stained nuclei. The number of nuclei (% confluence) of the drug treated wells were normalised to the DMSO control and the growth inhibition was calculated using the combenefit software (Di Veroli et al., 2016).
# U87 IDH1 wt = experiment: Combination assay PARP inhibitor with TMZ, U87 IDH1 wt; assay type: cell-based
# Method: as §1, §2
# SJ-G2 IDH1mt ATRXmt = experiment: cells; settings: SJ-G2, read-out: Compound 20 IC50
# Method: as §1, §2
# PARP1 = PARP1 (Homo sapiens (Human), UniProt P09874); experiment: PARP1 trapping; assay type: cell-based; settings: data not shown
# PARP1, sequence (P09874 whole entry): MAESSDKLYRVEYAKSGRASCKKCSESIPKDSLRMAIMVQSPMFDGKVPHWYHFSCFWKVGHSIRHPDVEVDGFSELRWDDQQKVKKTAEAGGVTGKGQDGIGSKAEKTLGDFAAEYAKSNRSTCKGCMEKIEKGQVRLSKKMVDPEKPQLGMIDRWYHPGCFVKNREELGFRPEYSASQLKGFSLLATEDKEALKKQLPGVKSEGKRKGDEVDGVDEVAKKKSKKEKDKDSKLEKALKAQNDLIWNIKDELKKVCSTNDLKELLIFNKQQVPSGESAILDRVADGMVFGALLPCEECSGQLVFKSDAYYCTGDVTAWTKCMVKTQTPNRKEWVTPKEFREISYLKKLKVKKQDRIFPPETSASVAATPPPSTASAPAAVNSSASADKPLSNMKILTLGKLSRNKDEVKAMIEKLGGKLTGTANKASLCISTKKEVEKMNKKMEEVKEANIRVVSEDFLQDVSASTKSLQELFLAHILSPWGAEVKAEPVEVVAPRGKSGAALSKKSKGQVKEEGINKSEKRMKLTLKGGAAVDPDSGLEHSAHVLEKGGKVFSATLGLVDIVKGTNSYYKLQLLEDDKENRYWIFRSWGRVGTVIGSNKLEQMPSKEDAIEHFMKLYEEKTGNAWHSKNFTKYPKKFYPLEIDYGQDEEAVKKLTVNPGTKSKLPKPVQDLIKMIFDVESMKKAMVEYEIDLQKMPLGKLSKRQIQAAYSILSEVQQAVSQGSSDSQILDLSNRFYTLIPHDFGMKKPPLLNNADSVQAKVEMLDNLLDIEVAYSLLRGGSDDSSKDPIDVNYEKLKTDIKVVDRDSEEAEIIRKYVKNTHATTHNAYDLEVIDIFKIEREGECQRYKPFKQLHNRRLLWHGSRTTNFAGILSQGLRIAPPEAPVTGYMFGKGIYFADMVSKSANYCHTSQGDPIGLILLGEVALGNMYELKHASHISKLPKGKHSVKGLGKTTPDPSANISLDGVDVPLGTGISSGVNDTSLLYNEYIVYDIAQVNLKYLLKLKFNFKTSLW
# BRCA2 (−/−) DLD1 cells = experiment: PARP proliferation assay (7 day compound dosing), BRCA2 (−/−) DLD1; assay type: cell-based; settings: Homo sapiens, DLD-1, 168 h, read-out: BRCA2 −/− DLD-1 prolif. 7 d IC50
# Method: DLD1 and BRCA2 (−/−) DLD1 cells were harvested to a density of 5000 cells/ml and 2.5E4 cells/ml respectively in complete media, 40 μL/well seeded into 384-well plates (Greiner, Kremsmunster, Austria; 781090) using a Multidrop Combi then incubated at 37° C., 5% CO2 overnight. Next day (Day 1) using a Multidrop Combi add sytox green (5ul, 2 uM) and saponin (10 ul, 0.25% stock) to a day 0 plate, seal the plate using a black adhesive lid and incubate for >3 h at it. Cells were imaged using Cell Insight (Thermo Fisher) fitted with a 4x objective. Test compounds are added using an Echo 555 and placed in incubator maintained at 37° C., 5% CO2 and incubated for 7 days. On Day 8 add sytox green (5ul, 2 uM) and then saponin (10 ul, 0.25% stock) to plates, seal the plate using a black adhesive lid and incubate for >3 h at it. Read all cells on the Cell Insight with 4× Objective. The rate of proliferation is determined in Genedata by assessing the total cell number output from the Cell Insight for Day 0 and Day 8 plates.
# [1] = system: SJ-G2 IDH1 wt and IDH1mt isogenic pairs; experiment: Combination assay PARP inhibitor with TMZ, SJ-G2 isogenic pairs; assay type: cell-based
# Method: as §1, §2
# [2] = system: PARylation in U87 isogenic pair; experiment: PARylation inhibition in U87 isogenic pair; assay type: cell-based; settings: data not shown
# U87 IDH1 mt R132H = experiment: Combination assay PARP inhibitor with TMZ, U87 IDH1mt; assay type: cell-based
# Method: as §1, §2
smiles,measurement,setting,value
"CNC(=O)c1ccc(N2CCN(Cc3ccc4nc(C)c(=O)[nH]c4c3F)CC2)c(F)n1 [Example 20, 6-fluoro-5-[4-[(5-fluoro-2-methyl-3-oxo-4H-quinoxalin-6-yl)methyl]piperazin-1-yl]-N-methyl-pyridine-2-carboxamide]",pIC50,U87 IDH1mt ATRXwt,< 4.00
same,concentration at which Compound 20 synergises with TMZ,U87 IDH1 wt,10 µM
same,pIC50,SJ-G2 IDH1mt ATRXmt,5.76
same,lowest concentration with potent trapping of PARP1,PARP1,10 nM
same,pIC50,BRCA2 (−/−) DLD1 cells,8.10
same,lowest PARP inhibitor concentration significantly enhancing the TMZ effect,[1],10 nM
same,IC95 for PARylation inhibition,[2],8 nM
same,concentration at which Compound 20 synergises with TMZ,U87 IDH1 mt R132H; U87 IDH1mt,1 µM
same,lower concentration for synergy with TMZ in IDH1mt compared to wild type,U87 IDH1 mt R132H; U87 IDH1mt vs IDH1 wt,10 fold
